Experiments:
Assay in all cases: relative viability (nuclei count vs DMSO), 5 days (fraction); higher = more cells survive
[1] = compound: CC1=C(C(=O)N2C=CSC2=N1)CCN3CCC(=C(C4=CC=CC=C4)C5=CC=C(C=C5)F)CC3 + Cc1nc(Nc2ncc(C(=O)Nc3c(C)cccc3Cl)s2)cc(N2CCN(CCO)CC2)n1 [Dasatinib] (partner 0.075 µM)
How it was run: (§1)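 Relative viability was taken as the ratio of nuclei in treated wells to nuclei in vehicle wells. Lung cancer cell lines in 1536-well plates received compounds by pin tool one day after seeding, either one drug alone or a fixed anchor-drug dose plus five library-drug doses (not always all listed) in √10 steps. Nuclei were counted on 4× images after 5 days of treatment, and values are medians of duplicate plates.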

[2] = compound: CC1=C(C(=O)N2C=CSC2=N1)CCN3CCC(=C(C4=CC=CC=C4)C5=CC=C(C=C5)F)CC3 + CC(=O)c1c(C)c2cnc(Nc3ccc(N4CCNCC4)cn3)nc2n(C2CCCC2)c1=O [Palbociclib] (partner 0.5 µM)
How it was run: as §1

[3] = compound: CC1=C(C(=O)N2C=CSC2=N1)CCN3CCC(=C(C4=CC=CC=C4)C5=CC=C(C=C5)F)CC3 + Cc1nc(NC(=O)N2CCC[C@H]2C(N)=O)sc1-c1ccnc(C(C)(C)C(F)(F)F)c1 [Alpelisib] (partner 2 µM)
How it was run: as §1

[4] = compound: CC1=C(C(=O)N2C=CSC2=N1)CCN3CCC(=C(C4=CC=CC=C4)C5=CC=C(C=C5)F)CC3 + CC(C)C[C@H](NC(=O)[C@H](Cc1ccccc1)NC(=O)c1cnccn1)B(O)O [Bortezomib] (partner 0.002 µM)
How it was run: as §1

| Cell Line | relative viability ([1]; first compound 0.08 µM) | relative viability ([1]; first compound 0.253 µM) | relative viability ([1]; first compound 0.8 µM) | relative viability ([1]; first compound 2.53 µM) | relative viability ([1]; first compound 8 µM) | relative viability ([2]; first compound 0.08 µM) | relative viability ([2]; first compound 0.253 µM) | relative viability ([2]; first compound 0.8 µM) | relative viability ([2]; first compound 2.53 µM) | relative viability ([2]; first compound 8 µM) | relative viability ([3]; first compound 0.08 µM) | relative viability ([3]; first compound 0.253 µM) | relative viability ([3]; first compound 0.8 µM) | relative viability ([3]; first compound 2.53 µM) | relative viability ([3]; first compound 8 µM) | relative viability ([4]; first compound 0.08 µM) | relative viability ([4]; first compound 0.253 µM) | relative viability ([4]; first compound 0.8 µM) | relative viability ([4]; first compound 2.53 µM) | relative viability ([4]; first compound 8 µM) |
| --- | --- | --- | --- | --- | --- | --- | --- | --- | --- | --- | --- | --- | --- | --- | --- | --- | --- | --- | --- | --- |
| LU99A | 0.507 | 0.544 | 0.57 | 0.551 | 0.422 | 0.383 | 0.367 | 0.416 | 0.387 | 0.447 | 0.47 | 0.47 | 0.496 | 0.621 | 0.456 | 1.23 | 1.11 | 1.05 | 1.14 | 0.904 |
| A-427 | 0.788 | 0.585 | 0.715 | 0.696 | 0.457 | 0.533 | 0.565 | 0.499 | 0.541 | 0.531 | 1.15 | 1.11 | 1.05 | 1.1 | 1.08 | 1.07 | 1.08 | 0.984 | 1.03 | 0.834 |
| NCI-H727 | 0.319 | 0.338 | 0.394 | 0.396 | 0.319 | 0.582 | 0.547 | 0.577 | 0.665 | 0.701 | 0.507 | 0.509 | 0.493 | 0.738 | 0.425 | 0.802 | 1.03 | 0.997 | 0.858 | 0.633 |
| HCC-827 | 0.212 | 0.288 | 0.38 | 0.3 | 0.265 | 0.483 | 0.496 | 0.491 | 0.486 | 0.455 | 0.971 | 0.964 | 0.979 | 1.15 | 0.859 | 0.975 | 0.843 | 1.01 | 1.11 | 0.987 |
| NCI-H2087 | 0.91 | 0.87 | 0.882 | 0.752 | 0.637 | 0.279 | 0.237 | 0.236 | 0.227 | 0.238 | 0.999 | 1.1 | 1.06 | 1.24 | 0.763 | 0.836 | 0.795 | 1.02 | 1.02 | 0.589 |
| NCI-H2228 | 0.542 | 0.555 | 0.562 | 0.546 | 0.338 | 0.56 | 0.68 | 0.723 | 0.468 | 0.432 | 0.75 | 0.829 | 0.734 | 0.595 | 0.786 | 0.939 | 0.928 | 1.25 | 1.17 | 0.64 |
| NCI-H1792 | 0.72 | 0.574 | 0.817 | 0.837 | 0.352 | 0.353 | 0.663 | 0.649 | 0.564 | 0.271 | 0.679 | 0.6 | 0.722 | 0.611 | 0.545 | 0.742 | 0.614 | 0.976 | 0.77 | 0.438 |
| LXF-289 | 0.276 | 0.18 | 0.214 | 0.209 | 0.189 | 0.595 | 0.666 | 0.604 | 0.599 | 0.469 | 1.06 | 1.07 | 1.08 | 1.03 | 0.917 | 1.08 | 1.13 | 1.05 | 0.97 | 0.933 |
| NCI-H1915 | 0.371 | 0.315 | 0.305 | 0.374 | 0.252 | 0.559 | 0.542 | 0.496 | 0.498 | 0.397 | 1.1 | 1.11 | 1.07 | 1.06 | 0.782 | 1.02 | 0.864 | 1.1 | 0.971 | 0.472 |
| NCI-H1993 | 0.513 | 0.533 | 0.559 | 0.596 | 0.507 | 0.583 | 0.619 | 0.592 | 0.705 | 0.614 | 0.683 | – | 0.694 | 0.699 | 0.669 | 0.834 | – | 0.919 | 1.5 | 0.987 |
| HARA | 0.243 | 0.23 | 0.265 | 0.229 | 0.136 | 0.307 | 0.275 | 0.276 | 0.289 | 0.285 | 0.932 | 0.668 | 1.05 | 0.77 | 0.623 | 1.08 | 1.47 | 1.13 | 1.21 | 1.05 |
| NCI-H23 | 0.659 | 0.674 | 0.867 | 0.703 | 0.518 | 0.542 | 0.492 | 0.463 | 0.568 | 0.403 | 0.694 | 0.545 | 0.772 | 0.829 | 0.411 | 0.705 | 1.08 | 1.1 | 0.974 | 0.545 |
| BEN | 0.318 | 0.319 | 0.294 | 0.362 | 0.284 | 0.455 | 0.498 | 0.479 | 0.558 | 0.498 | 0.826 | 1.09 | 1.09 | 0.974 | 0.69 | 0.76 | 0.757 | 0.864 | 0.828 | 0.534 |
| COR-L23 | 0.383 | 0.341 | 0.457 | 0.59 | 0.403 | 0.292 | 0.306 | 0.255 | 0.286 | 0.27 | 0.755 | 1.05 | 0.818 | 0.877 | 0.667 | 0.701 | 0.74 | 1.02 | 1.18 | 0.397 |
| ABC-1 | 0.622 | 0.606 | 0.455 | 0.512 | 0.467 | 0.579 | – | 0.581 | 0.559 | 0.67 | 0.989 | 0.935 | 1.08 | 1.09 | 0.605 | 0.313 | 0.297 | 0.252 | 0.244 | 0.269 |
| HCC-78 | 0.344 | 0.356 | 0.373 | 0.344 | 0.248 | 0.336 | 0.462 | 0.484 | 0.519 | 0.349 | 0.352 | 0.347 | 0.324 | 0.379 | 0.286 | 0.458 | 0.616 | 0.552 | 0.447 | 0.405 |
| LCLC-97TM1 | 0.857 | 0.773 | 0.949 | 0.92 | 0.658 | 0.255 | 0.217 | 0.284 | 0.283 | 0.205 | 0.184 | 0.265 | 0.226 | 0.304 | 0.148 | – | 0.484 | 0.249 | 0.408 | 0.597 |
| NCI-H2126 | 0.529 | 0.553 | 0.565 | 0.634 | 0.689 | 0.367 | 0.343 | 0.359 | 0.367 | 0.344 | 0.764 | 0.766 | 0.742 | 0.816 | 0.785 | 1.24 | 1.07 | 1.15 | 1.22 | 1.08 |
| NCI-H1734 | 0.484 | 0.438 | 0.458 | 0.468 | 0.35 | 0.367 | 0.342 | 0.324 | 0.318 | 0.378 | 0.727 | 0.648 | 0.718 | 0.713 | 0.422 | 0.873 | 0.715 | 0.915 | 1.12 | 0.447 |
| EKVX | 0.359 | 0.631 | 0.519 | 0.434 | 0.549 | 0.371 | 0.366 | 0.349 | 0.397 | 0.293 | 0.719 | 0.868 | 1.05 | 1.14 | 0.652 | 0.826 | 0.923 | 1.18 | 1.01 | 0.684 |
| NCI-H2085 | 0.279 | 0.224 | 0.202 | 0.242 | 0.258 | 0.498 | 0.506 | 0.474 | 0.533 | 0.469 | 0.869 | 0.909 | 0.928 | 0.943 | 0.773 | 1.04 | 1.02 | 1.07 | 1.07 | 0.878 |
| NCI-H1437 | 0.471 | 0.346 | 0.434 | 0.426 | 0.339 | 0.297 | 0.317 | 0.325 | 0.323 | 0.257 | – | 1.01 | 1.09 | 1.21 | 0.729 | – | 0.398 | 0.476 | 0.484 | 0.351 |
| NCI-H1355 | 0.698 | 0.605 | 0.769 | 0.771 | 0.632 | 0.368 | 0.404 | 0.378 | 0.407 | 0.455 | 0.79 | 0.948 | 0.854 | 0.899 | 0.623 | 1.28 | 1.25 | 1.25 | 1.21 | 0.921 |
| NCI-H322M | 0.267 | 0.238 | 0.246 | 0.254 | 0.27 | 0.552 | 0.492 | 0.479 | 0.504 | 0.524 | 0.769 | 0.85 | 0.897 | 0.804 | 0.8 | 1.3 | 1.28 | 1.24 | 1.35 | 1.09 |
| LC-2-ad | 0.766 | 0.538 | 0.422 | 0.644 | 0.497 | 0.463 | 0.459 | 0.475 | 0.473 | 0.458 | 0.936 | 0.91 | 0.789 | 0.962 | 0.794 | 1.05 | 0.799 | 1.03 | 1.22 | 0.827 |
| NCI-H661 | 0.862 | 0.847 | 0.75 | 0.913 | 0.628 | 0.402 | 0.393 | 0.391 | 0.417 | 0.429 | 0.658 | 0.498 | 0.461 | 0.623 | 0.427 | 0.764 | 0.776 | 0.88 | 0.871 | 0.697 |
| LCLC-103H | 0.498 | 0.409 | 0.439 | 0.424 | 0.339 | 0.523 | 0.495 | 0.491 | 0.504 | 0.453 | 1.08 | 1 | 1.12 | 1.01 | 0.918 | 1.06 | 1.06 | 0.957 | 1.22 | 0.903 |
| HOP-62 | 0.595 | 0.482 | 0.621 | 0.575 | 0.548 | 0.439 | 0.479 | 0.457 | 0.411 | 0.288 | 0.974 | 0.852 | 0.971 | 0.945 | 0.56 | 0.731 | 0.628 | 1.03 | 0.922 | 0.323 |

Reference: the supplement of paper PMC10307832
